The text below walks through data of patent publication US4431650A, “Esters of benzofuranyl acids” (Union Carbide Corporation, priority 1980, dated 1984).

Type in all cases: in vivo
Data set [1] has as its system house flies (Musca domestica, L.). Description: Fly Bait Test. To be noted: po, 24 h, adult flies, bait in 10 percent sugar solution, twenty four hours, read-out: LD50 HF. As to the method:
(§1) Suspensions of the test compounds were prepared by dissolving one gram of compound in 50 milliliters of acetone in which had been dissolved 0.1 gram (10 percent of the weight of compound) of an alkylphenoxy polyethoxyethanol surfactant, as an emulsifying or dispersing agent. The resulting solution was mixed into 150 milliliters of water to give roughly 200 milliliters of a suspension containing the compound in finely divided form. The thus-prepared stock suspension contained 0.5 percent by weight of compound. The concentrations in parts per million by weight employed in the tests described hereinbelow were obtained by appropriate dilutions of the stock suspension with water. The test procedures were as follows:
Four to six day old adult house flies (Musca domestica, L.), reared according to the specifications of the Chemical Specialities Manufacturing Association (Blue Book, McNair-Dorland Co., N.Y. 1954; pages 243-244, 261) under controlled conditions of 80± F. and 50±5 percent relative humidity, were the test insects. The flies were immobilized by anesthetizing with carbon dioxide and twenty five immobilized individuals,males and females, were transferred to a cage consisting of a standard food strainer about five inches in diameter which was inverted over a wrapping-paper-covered surface. […]

In data set [2] the test system is two-spotted mite (Tetranychus urticae Koch). In words: Mite Foliage Spray Test. To be noted: foliar, 144 h, foliage spray on bean plants, adults and nymphs, mortality count of motile forms after six days, read-out: LD50 Mite. The protocol: as §1
Adults and nymphal stage of the two-spotted mite (Tetranychus urticae Koch), reared on Tendergreen bean plants at 80±5 percent relative humidity, were the test organisms. Infested leaves from a stock culture were placed on the primary leaves of two bean plants six to eight inches in height, growing in a two-and-a-half inch clay pot. 150-200 Mites, a sufficient number for testing, transferred from the excised leaves to the fresh plants in a period of twenty four hours. Following the twenty four hour transfer period, the excised leaves were removed from the infested plants. […]

Data set [3] deals with bean aphid (Aphis fabae Scop.). Description: Bean Aphid Foliage Spray Test. The conditions noted are these: foliar, foliage spray on nasturtium plants, adults and nymphs, mortality after 24 hour holding period, read-out: LD50 Aphid. The protocol: as §1
Adults and nymphal stages of the bean aphid (Aphis fabae Scop.) reared on potted dwarf nasturtium plants at 65°-70° F. and 50-70 percent relative humidity, constituted the test insects. For testing purposes, the number of aphids per pot was standardized to 100-150 by trimming plants containing excess aphids. […]
The potted plants (one pot per compound tested) infested with 100-150 aphids, were placed on a revolving turntable and sprayed with 100-110 milliliters of test compound formulation by use of a DeVilbiss spray gun set at 40 psig. air pressure. […] Percent mortality was recorded for various concentration levels. […]

The subject of data set [4] is southern armyworm (Spodoptera eridania, (Cram.)). Description: Southern Armyworm Leaf Spray Bait Test. The conditions noted are these: 72 h, larvae on sprayed bean leaves, held three days, read-out: LD50 SAW. As to the method:
as §1
Larvae of the southern armyworm (Spodoptera eridania, (Cram.)), reared on Tendergreen bean plants at a temperature of 80°±5° F. and a relative humidity of 50± percent, constituted the test insects.
The test compounds were formulated by diluting the stock suspension with water to give a suspension containing 500 parts of test compound per million parts of final formulation. Potted Tendergreen bean plants of standard height and age were placed on a revolving turntable and sprayed with 100-110 milliliter of test compound formulation by use of a DeVilbiss spray gun set at 10 psig air pressure. […] Percent mortality was recorded for various concentration levels. […]

The next data set concerns Soybean. In words: Phytotoxicity, soybean. The arrangement: key: 1 = No plant injury at a dose of 2500 ppm. The conditions noted are these: rating; dose of 2500 ppm.
A further data set concerns Cott. Description: Phytotoxicity, cotton. Details: key: 1 = No plant injury at a dose of 2500 ppm. The conditions noted are these: rating; dose of 2500 ppm.
The test system of data set [5] is Mexican bean beetle (Epilachna variestis, Muls.). Description: Mexican Bean Beetle Leaf Spray Test. To be noted: 72 h, read-out: LD50 MBB. The protocol: as §1
Fourth instar larvae of the Mexican bean beetle (Epilachna variestis, Muls.), reared on Tendergreen bean plants at a temperature of 80°±5° F. and 50±5 percent relative humidity, were the test insects.
The test compounds were formulated by diluting the stock suspension with water to give a suspension containing 500 parts of test compound per million parts of final formulation. Tendergreen bean plants of standard height and age were placed on a revolving turntable and sprayed with 100-110 milliliters of test compound formulation by use of a DeVilbiss spray gun set at 10 psig air pressure. This application, which lasted 25 seconds, was sufficient to wet plants to run-off. […]

For a further data set, the system named is Corn. In words: Phytotoxicity, corn. The arrangement: key: 1 = No plant injury at a dose of 2500 ppm. The conditions noted are these: rating; dose of 2500 ppm.

SMILES strings stand for the structures. Converted amounts (≈) assume the structure as drawn.

On to `C#CC(OC(=O)C(c1cc2ccccc2o1)C(C)C)c1cccc(Oc2ccccc2)c1` (stereo not shown), for which the LC50 was ~180 µg/mL (≈ 424 µM) in data set [1]; 200 µg/mL (≈ 471 µM) in data set [2]; 0.8 µg/mL (≈ 1.88 µM) in data set [3]; 52 µg/mL (≈ 122 µM) in data set [4]; 5 µg/mL (≈ 11.8 µM) in data set [5]. For the same compound, the “Phytotoxicity Soybean” value in the data set on Soybean is recorded as 1. In the data set with Cott., the “Phytotoxicity Cott.” value was determined as 1. In addition, the “Phytotoxicity Corn” value with Corn came out at 1.

On to `CC(C)C(C(=O)OC(C#N)c1cccc(Oc2ccccc2)c1)c1cc2ccccc2o1` (stereo not shown), for which the LC50 is 23 µg/mL (≈ 54.1 µM) in data set [1]; 210 µg/mL (≈ 494 µM) in data set [2]; ~0.7 µg/mL (≈ 1.65 µM) in data set [3]; ~45 µg/mL (≈ 106 µM) in data set [4]; 11 µg/mL (≈ 25.9 µM) in data set [5]. Also, in the data set on Soybean, the “Phytotoxicity Soybean” value is given as 1. For the same compound, the “Phytotoxicity Cott.” value in the data set on Cott. amounted to 1. In the data set with Corn, the “Phytotoxicity Corn” value was found to be 1.
